In US10407445B2, “Hepatitis C virus inhibitors” (ENANTA PHARMACEUTICALS, INC., priority 2013, dated 2019):

How the values were obtained:
Assay type in all cases: cell-based
Conditions in all cases: Hepatitis C virus
[1] = system: HCV genotype 1a replicon, NS5A K24E; assay: Transient replication assay, GT1a NS5A K24E
[2] = system: HCV genotype 1a replicon, NS5A Q30R; assay: Transient replication assay, GT1a NS5A Q30R
[3] = system: GT3a-S52 replicon; assay: Stable replicon assay, comparison to daclatasvir, GT3a-S52
From the text: (§1) The GT3a-S52 replicon plasmid pSGRlucneo-GT3a-S52-HDVR-(ISH) was synthesized by Genscript. This plasmid encodes a GT3a (strain S52, accession GU814264) bicistronic subgenomic replicon encoding the hRluc-Neo reporter gene in the first cistron and NS3-NS5B, driven by an encephalomyocarditis virus (EMCV) internal ribosome entry site (IRES), in the second cistron. The hepatitis delta ribozyme (HDVR) was included after the HCV 3′ NTR followed by a unique SpeI restriction site for linearization. This replicon encodes three cell culture adaptive mutations, P1226S (NS3), D1437H (NS3), and S2210I (NS5A), as described previously (Saeed et al 2012 Antimicrob. Agents Chemother. 54: 1878-1887). The GT4a-ED43 replicon plasmid pSGRlucneo-GT4a-ED43-HDVR-(KG) was synthesized by Genscript. […]
(§2) Stable HCV replicon cell lines were grown in complete media (Dulbecco's modified Eagle medium [DMEM], 2 mM L-glutamine, 0.1 mM essential amino acids, 1 mM sodium pyruvate, 10% fetal bovine serum) with the addition 500 μg/ml […] (G418). […] For stable and transient replicon assays, luciferase activity of compound-treated cells was measured relative to DMSO-treated cells after 72 h incubation using RENILLA-GLO™ Luciferase Assay (Promega). […]

[4] = system: HCV genotype 1a replicon, NS5A Q30H; assay: Transient replication assay, GT1a NS5A Q30H
[5] = system: GT4a-ED43 replicon; assay: Stable replicon assay, comparison to daclatasvir, GT4a-ED43
From the text: as §1, §2

[6] = system: HCV genotype 1a replicon, NS5A K24E Q30K; assay: Transient replication assay, GT1a NS5A K24E Q30K
[7] = system: GT2a-JFH replicon; assay: Stable replicon assay, comparison to daclatasvir, GT2a-JFH
From the text: The plasmid pSG-hRlucNeo-JFH1 was generated from pSG-Neo-JFH1 (Kato et al. 2003, Gastroentrology 125:1808-1817). A fragment containing the JFH-1 5′ NTR-hRluc-Neo gene and two unique restriction sites (AgeI and PmeI) was synthesized (Integrated DNA Technologies, Coralville, Iowa). The resulting plasmid was digested with AgeI and PmeI and the excised fragment (5′NTR-hRluc-Neo) was ligated into pSG-Neo-JFH1 digested with the same enzymes to generate pSG-hRlucNeo-JFH1. To allow expression of heterologous NS5A sequences, an NS5A shuttle vector was generated from pSG-Neo-JFH1, in which the entire coding sequence of NS5A plus the first eight codons of NS5B were replaced with an AfeI restriction site. This was done by Infusion cloning (Clontech, Mountain View, Calif.) from two PCR products that were generated using pSG-Neo-JFH1 as a template and the following primer pairs: […]
as §2

Structure (SMILES)	EC50 [1]	EC50 [2]	EC50 [3]	EC50 [4]	EC50 [5]	EC50 [6]	EC50 [7]
COC(=O)N[C@H](C(=O)N1C[C@]2(CCCOC2)C[C@H]1c1ncc(-c2ccc(-c3ccc4c(ccc5nc([C@@H]6C[C@@H]7CCC[C@@H]7N6C(=O)[C@@H](NC(=O)OC)C(C)C)[nH]c54)c3)cc2)[nH]1)C(C)C [Compound 16]	0.0013 nM	0.012 nM	4.7 nM	0.006 nM	0.011 nM	7.9 nM	0.004 nM
COC(=O)N[C@H](C(=O)N1CCC[C@H]1c1nc(-c2ccc(-c3ccc(-c4c[nH]c([C@@H]5CCCN5C(=O)[C@@H](NC(=O)OC)C(C)C)n4)cc3)cc2)c[nH]1)C(C)C [Daclatasvir, reference compound]	0.0022 nM	3.4 nM	1.2 nM	0.8 nM	0.025 nM	20 nM	0.008 nM
